Assays:
Format in all cases: binding
HLA-B*58:01 = HLA-B*58:01 (Homo sapiens, UniProt P01889, A329T/C349S/D201E/D98Y/E176V/E187L/E204Q/E69T/G107R/I218V/I90N/K202T/L105A/L119I/N104I/N87E/Q89R/Q94S/R106L/R155S/R180L/R86G/S101N/S121R/S35A/S48A/T118I/V127L/V306I/V36M/Y140S/Y91M); details: percent relative the binding of positive control peptide […]; duplicated experiments; positive binder >40%
HLA-B*07:02 = HLA-B*07:02 (Homo sapiens, UniProt P01889); details: percent relative the binding of positive control peptide […]; duplicated experiments; positive binder >40%
HLA-A*30:02 = HLA-A*30:02 (Homo sapiens, UniProt P04439, D101N/D140H/D185E/E176R/F33S/G80R/H175R/K168Q/Q94H/R138E/R41S/V100E); details: percent relative the binding of positive control peptide […]; duplicated experiments; positive binder >40%
HLA-A*68:01 = HLA-A*68:01 (Homo sapiens, UniProt P04439, A269V/D185E/E176V/E277Q/E87N/F33Y/G231S/I121M/I166T/I218V/L180W/L300P/L318F/N151K/P208A/P217A/Q86R/R169H/T345S); details: percent relative the binding of positive control peptide […]; duplicated experiments; positive binder >40%
HLA-A*24:02 = HLA-A*24:02 (Homo sapiens, UniProt P04439, D101N/D140Y/D185E/E176V/E190D/F33S/G103R/G107R/I119L/I121M/I306V/K335N/L105A/L180Q/L300P/N151K/N90K/Q86E/Q94H/R106L/R138H/R89G/T104I/T345S/V100E/W191G/Y123F); details: percent relative the binding of positive control peptide […]; duplicated experiments; positive binder >40%
HLA-C*07:01 = HLA-C*07:01 (Homo sapiens, UniProt P10321, K90N/S123Y); details: percent relative the binding of positive control peptide […]; duplicated experiments; positive binder >40%
HLA-A*30:01 = HLA-A*30:01 (Homo sapiens, UniProt P04439, D140H/D185E/E176W/F33S/G80R/H175R/K168Q/R138E/R41S); details: percent relative the binding of positive control peptide […]; duplicated experiments; positive binder >40%
HLA-A*02:01 = HLA-A*02:01 (Homo sapiens, UniProt P04439, D140Y/D185E/D98H/E176V/E277Q/G131W/G231S/I119V/I121R/I166T/I218V/L300P/L318F/N151K/N90K/P208A/P217A/Q86G/Q94H/R138H/R169H/T345S); details: percent relative the binding of positive control peptide […]; plate-bound monomer 0.5 µg/ml; duplicated experiments; positive binder >40%

Row | Substance | Bind B*58:01 (HLA-B*58:01) | Bind B*07:02 (HLA-B*07:02) | Bind A*30:02 (HLA-A*30:02) | Bind A*68:01 (HLA-A*68:01) | Bind A*24:02 (HLA-A*24:02) | Bind C*07:01 (HLA-C*07:01) | Bind A*30:01 (HLA-A*30:01) | Bind A*02:01 (HLA-A*02:01)
1 | ELPQW LSAN | 0% | 16% | 0% | 31% | 56% | 0% | 20% | 15%
2 | YSDWYSPAC | 85% | 0% | 2% | 18% | 0% | 5% | 15% | 59%
3 | GKAGCQTYK | 22% | 9% | 58% | 72% | 19% | 0% | 34% | 33%
4 | ELGGANIPA | 0% | 0% | 0% | 0% | 0% | 0% | 0% | 47%
5 | CGNGTPNEL | 0% | 0% | 41% | 0% | 2% | 28% | 0% | 20%
6 | PSQGMGPSL | 0% | 8% | 16% | 0% | 56% | 29% | 21% | 39%
7 | ALLDPSQGM | 1% | 17% | 86% | 0% | 0% | 22% | 5% | 60%
8 | TLQNLGAEI [Rv0288_24–32m1] | – | – | – | – | 4% | – | – | 26%
9 | YNYPTMLGH [Rv0288_6–14m1] | – | – | – | – | – | 0% | – | –
10 | PSSDPAW ER | 2% | 10% | 0% | 53% | 0% | 18% | 0% | 1%
11 | GNNSPAVYL | 0% | 0% | 0% | 3% | 6% | 51% | 0% | 0%
12 | LAMGDAGGY | 39% | 2% | 74% | 56% | 0% | 0% | 0% | 10%
13 | LSANRAVKP | 0% | 11% | 15% | 0% | 27% | 24% | 49% | 17%
14 | DLVRAYHSM [Rv0288_64–72m1] | – | – | – | 4% | 0% | – | – | –
15 | AGSSAMILA | 12% | 10% | 0% | 2% | 0% | 14% | 0% | 56%
16 | VKPTGSAAI | 0% | 43% | 0% | 0% | 0% | 0% | 0% | 0%
17 | VYCGNGTPN | 15% | 3% | 80% | 4% | 11% | 59% | 8% | 0%
18 | PAFEW YYQS | 0% | 15% | 0% | 6% | 24% | 2% | 0% | 76%
19 | FLTSELPQW | 71% | 8% | 3% | 5% | 117% | 0% | 0% | 75%
20 | PQWLSANRA | 0% | 14% | 13% | 13% | 75% | 2% | 36% | 52%
21 | YNYPAMLDH [Rv0288_6–14m2] | – | – | – | – | – | 0% | – | –
22 | QNLGAEIAV [Rv0288_26–34m1] | 0% | – | – | – | – | – | – | 28%
23 | VRAYHSMSS [Rv0288_66–74m1] | – | – | – | – | – | 3% | – | –
24 | NLGAEIAVE [Rv0288_27–35m1] | – | – | – | – | – | – | – | 29%
25 | YNYPTMLDH [Rv0288_6–14m3] | – | – | – | – | – | 0% | – | –
26 | TMLDHAGDM [Rv0288_10–18m3] | – | – | 0% | – | 14% | – | – | 24%

Source: publication PMC3608651, “A Broad Profile of Co-Dominant Epitopes Shapes the Peripheral Mycobacterium tuberculosis Specific CD8+ T-Cell Immune Response in South African Patients with Active Tuberculosis” (PLoS ONE, 2013)
